Results taken from paper PMC8482815, “Targeting Host Glycolysis as a Strategy for Antimalarial Development” (Frontiers in Cellular and Infection Microbiology, 2021).
Where “and” joins values, the source holds several entries; their conditions need not be identical. Identical values can stand only once.

Test system: human erythrocytes
Assay: Untargeted metabolomics and 13C-glucose tracing of enolase inhibitor treated erythrocytes
Format: cell-based
Conditions: 0h
Experimental: Freshly collected erythrocytes were washed, resuspended to 10% hematocrit in buffer [25mM HEPES (pH 7.4), 120mM NaCl, 5.4mM KCl, 1.8mM CaCl2, and 1mM NaH2PO4], incubated for 1 hour at 37°C, then centrifuged at 2000xg for 5 minutes at 4°C, resuspended in fresh wash buffer to 30-40% hematocrit, and split into 210µL aliquots of packed erythrocytes. […] All samples were incubated at 37°C shaking at 500 RPM. Triplicate samples of supernatants and packed erythrocytes were collected at 0, 0.5, 1, and 6-hour intervals and snap-frozen in liquid N2.
RBC and media samples were extracted at 1:10 and 1:20 dilutions, respectively, in 5:3:2 MeOH : MeCN:H2O v/v/v, and supernatants analyzed on a Thermo Vanquish UHPLC coupled to a Thermo Q Exactive mass spectrometer, as extensively described ([Nemkov et al., 2015]; [Nemkov et al., 2017]). The extraction buffer was supplemented with 40uM 3-^13C lactate to allow absolute quantification of lactate isotopologues, including lactate generated via glycolysis ([1,2,3-^13C3] enriched) vs. the pentose phosphate pathway ([2,3-^13C2] enriched), as described ([Reisz et al., 2016]). Metabolite assignments, peak area integration and isotopologues distributions were determined using Maven (Princeton University) ([Nemkov et al., 2015]; [Nemkov et al., 2017]).
Data were auto-scaled and normalized to zero-hour time points. Metabolites were removed from the dataset if greater than 50% of the samples contained missing values or the relative standard deviation among replicates exceeded 25%. Additionally, data was filtered using the interquartile range to reduce near-constant values from the experiment by 5%.
A principal component analysis of preprocessed data was plotted with the 95% confidence interval minimum volume enclosing ellipsoid for each respective group (MetaboAnalyst, cluster, plotly). A two-way repeated measures analysis of variance (ANOVA) was performed with multiple comparisons corrected for using a false discovery rate p-value cutoff of 0.05. Metabolite-Pathway analysis was performed using the R package of MetaboAnalyst, as previously described ([Xia and Wishart, 2010]). Metabolite-Protein nodal analysis was performed using omicsnet.ca and as previously described ([Zhou and Xia, 2018]).

[1] = treated erythrocytes, one value per replicate sample, polarity +
[2] = treated erythrocytes, one value per replicate sample, polarity -
[3] = treated erythrocytes, replicate samples

CC(C)(C)C(=O)OCOP(=O)(OCOC(=O)C(C)(C)C)C1CCCN(O)C1=O (stereo not shown) [POMHEX]
AMP level (metabolomics signal) (replicate samples): 2.43E+06 and 4.08E+06 and 2.38E+06 | ATP level (metabolomics signal) (replicate samples): 7.62E+03 and 7.58E+03 and 9.00E+03 | Adenine level (metabolomics signal) (replicate samples): 1.31E+05 and 1.38E+05 and 1.32E+05 | Cytosine level (metabolomics signal) (replicate samples): 8.55E+04 and 2.38E+05 and 4.74E+05 | L-alanine level (metabolomics signal) (replicate samples): 7.28E+06 and 6.97E+06 and 9.28E+06 | L-arginine level (metabolomics signal) (replicate samples): 7.34E+06 and 1.51E+07 and 4.28E+06 | L-asparagine level (metabolomics signal) (replicate samples): 3.07E+06 and 3.14E+06 and 2.95E+06 | L-aspartate level (metabolomics signal) (replicate samples): 3.52E+07 and 3.22E+07 and 3.54E+07 | L-cysteine level (metabolomics signal) (replicate samples): 4.11E+05 and 4.42E+05 and 1.93E+05 | L-glutamate level (metabolomics signal) (replicate samples): 3.91E+07 and 3.64E+07 and 4.16E+07 | L-glutamine level (metabolomics signal) (replicate samples): 3.51E+07 and 3.65E+07 and 2.77E+07 | L-histidine level (metabolomics signal) (replicate samples): 1.77E+06 and 1.86E+06 and 1.64E+06 | L-isoleucine level (metabolomics signal) (replicate samples): 0.00E+00 and 2.79E+07 and 2.01E+07 | L-leucine level (metabolomics signal) (replicate samples): 1.13E+08 and 1.29E+08 and 1.02E+08 | L-lysine level (metabolomics signal) (replicate samples): 3.76E+06 and 3.91E+06 and 3.34E+06 | L-methionine level (metabolomics signal) (replicate samples): 1.20E+07 and 1.28E+07 and 9.77E+06 | L-phenylalanine level (metabolomics signal) (replicate samples): 3.89E+06 and 5.35E+06 and 4.43E+06 | L-proline level (metabolomics signal) (replicate samples): 3.87E+07 and 4.04E+07 and 2.78E+07 | L-serine level (metabolomics signal) (replicate samples): 2.27E+06 and 2.30E+06 and 2.07E+06 | L-threonine level (metabolomics signal) (replicate samples): 3.34E+06 and 3.50E+06 and 3.23E+06 | L-tryptophan level (metabolomics signal) (replicate samples): 4.61E+06 and 3.92E+06 and 4.51E+06 | L-tyrosine level (metabolomics signal) (replicate samples): 1.31E+07 and 1.44E+07 and 1.06E+07 | L-valine level (metabolomics signal) (replicate samples): 1.25E+08 and 1.20E+08 and 1.19E+08 | dCMP level (metabolomics signal) (replicate samples): 2.66E+04 and 2.57E+04 and 1.91E+04 | dTMP level (metabolomics signal) (replicate samples): 1.47E+06 and 1.26E+06 and 9.65E+05 | glycine level (metabolomics signal) (replicate samples): 1.29E+06 and 1.21E+06 and 1.30E+06 | N-Acyl-D-aspartate (C06380) metabolite signal [1]: 2.82E+05 and 3.24E+05 and 2.89E+05 | Poly-gamma-D-glutamate (C05723) metabolite signal [1]: 2.28E+07 and 2.38E+07 and 1.86E+07 | D-Ribitol 5-phosphate (C01068) metabolite signal [2]: 1.18E+04 and 2.78E+04 and 2.55E+04 | D-glucono-1,5-lactone (C00198) metabolite signal [2]: 7.35E+05 and 6.39E+05 and 6.34E+05 | L-Noradrenaline (C00547) metabolite signal [2]: 2.10E+05 and 2.67E+05 and 1.54E+05 | Oxalosuccinate (C05379) metabolite signal [2]: 1.80E+05 and 1.89E+05 and 1.75E+05 | Pyridoxamine (C00534) metabolite signal [2]: 3.47E+04 and 2.11E+04 and 4.13E+04 | Thioredoxin disulfide (C00343) metabolite signal [2]: 8.56E+04 and 8.74E+04 and 6.44E+04 | 1-4-beta-D-Xylan (metabolite signal) [3]: 2.75E+05 and 3.19E+05 and 2.60E+05 | 2-Hydroxyglutarate/Citramalate (C02630) metabolite signal [3]: 1.87E+05 and 1.44E+05 and 1.36E+05 | 5-6-Dihydrothymine (C00906) metabolite signal [3]: 3.37E+05 and 3.23E+05 and 2.70E+05 | 5-10-Methenyltetrahydrofolate (metabolite signal) [3]: 3.52E+05 and 3.49E+05 and 3.48E+05 | 5-Hydroxyisourate (C11821) metabolite signal [3]: 4.58E+06 and 4.14E+06 and 5.16E+06 | 5-L-Glutamyl-taurine (metabolite signal) [3]: 1.13E+05 and 1.05E+05 and 1.57E+05 | 5-Oxoproline (metabolite signal) [3]: 1.19E+06 and 1.09E+06 and 9.91E+05 | (S)(+)-Allantoin (C02350) metabolite signal [3]: 4.00E+04 and 4.50E+04 and 4.43E+04 | Allantoate (C00499) metabolite signal [3]: 3.63E+05 and 4.40E+05 and 2.26E+05 | Ascorbate (metabolite signal) [3]: 1.03E+05 and 1.39E+05 and 1.05E+05 | CMP-N-acetylneuraminate (metabolite signal) [3]: 3.22E+04 and 2.63E+04 and 3.17E+04 | Carnosine (metabolite signal) [3]: 2.22E+05 and 1.73E+05 and 2.52E+05 | Citrate (C00158) metabolite signal [3]: 2.73E+04 and 3.19E+04 and 2.59E+04 | Creatine (metabolite signal) [3]: 2.64E+08 and 2.63E+08 and 2.96E+08 | Creatinine (metabolite signal) [3]: 3.90E+06 and 3.59E+06 and 3.78E+06 | Cys-Gly (metabolite signal) [3]: 1.91E+06 and 2.03E+06 and 2.13E+06 | D-Glucosamine (metabolite signal) [3]: 6.56E+04 and 1.26E+05 and 1.11E+05 | D-Glucose (C00031) metabolite signal [3]: 7.03E+06 and 7.96E+06 and 6.07E+06 | D-Ribose (C00121) metabolite signal [3]: 2.42E+05 and 2.08E+05 and 2.00E+05 | Dehydroascorbate (metabolite signal) [3]: 6.66E+03 and 1.26E+04 and 9.16E+03 | Dihydrofolate (metabolite signal) [3]: 2.17E+06 and 2.08E+06 and 1.28E+06 | Dimethylglycine (metabolite signal) [3]: 1.13E+06 and 1.12E+06 and 1.22E+06 | Diphosphate (C00013) metabolite signal [3]: 2.29E+03 and 2.81E+03 and 1.30E+03 | Fumarate (C00122) metabolite signal [3]: 1.70E+05 and 1.53E+05 and 1.29E+05 | Glutathione (C00051) metabolite signal [3]: 1.29E+08 and 1.42E+08 and 1.45E+08 | Glutathione disulfide (metabolite signal) [3]: 4.07E+05 and 2.99E+05 and 3.44E+05 | Hypoxanthine (C00262) metabolite signal [3]: 1.23E+05 and 8.50E+04 and 1.07E+05 | IMP (C00130) metabolite signal [3]: 2.07E+04 and 4.13E+04 and 2.42E+04 | Inosine (C00294) metabolite signal [3]: 1.23E+05 and 1.19E+05 and 1.09E+05 | L-Citrulline (metabolite signal) [3]: 2.18E+06 and 2.13E+06 and 2.77E+06 | L-Homoserine (metabolite signal) [3]: 1.85E+05 and 2.19E+05 and 1.31E+05 | Lactate (C01432) metabolite signal [3]: 7.44E+06 and 7.84E+06 and 7.12E+06 | Malate (C00149) metabolite signal [3]: 4.07E+05 and 3.13E+05 and 3.03E+05 | Mannitol (C00392) metabolite signal [3]: 1.01E+05 and 1.11E+05 and 1.22E+05 | N-Acetylneuraminate (metabolite signal) [3]: 3.05E+04 and 3.27E+04 and 2.27E+04 | N-Glycoloyl-neuraminate (metabolite signal) [3]: 2.02E+05 and 2.52E+05 and 1.61E+05 | NAD+ (C00003) metabolite signal [3]: 3.20E+05 and 3.25E+05 and 4.11E+05 | Nicotinamide (C00153) metabolite signal [3]: 2.56E+07 and 2.61E+07 and 2.89E+07 | Ornithine (metabolite signal) [3]: 2.51E+06 and 2.56E+06 and 2.47E+06 | Oxaloacetate (C00036) metabolite signal [3]: 4.82E+04 and 5.32E+04 and 4.35E+04 | Phosphoserine (metabolite signal) [3]: 1.31E+05 and 1.59E+05 and 1.52E+05 | Putrescine (metabolite signal) [3]: 5.04E+04 and 6.26E+04 and 7.87E+04 | Pyridoxal (C00250) metabolite signal [3]: 5.06E+04 and 4.81E+04 and 5.68E+04 | Pyruvate (C00022) metabolite signal [3]: 8.21E+05 and 7.91E+05 and 7.06E+05 | S-Glutathionyl-L-cysteine (metabolite signal) [3]: 1.68E+05 and 1.57E+05 and 8.75E+04 | Sedoheptulose 1-phosphate (C06222) metabolite signal [3]: 4.53E+04 and 4.14E+04 and 2.92E+04 | Spermidine (metabolite signal) [3]: 9.43E+06 and 1.01E+07 and 9.63E+06 | Spermine (metabolite signal) [3]: 8.86E+06 and 9.58E+06 and 9.08E+06 | Succinate (C00042) metabolite signal [3]: 1.10E+05 and 1.06E+05 and 1.08E+05 | Thymidine (C00214) metabolite signal [3]: 1.93E+04 and 1.39E+04 and 1.28E+04 | UDP (C00015) metabolite signal [3]: 3.47E+05 and 4.31E+05 and 2.43E+05 | UDP-N-acetyl-D-glucosamine (metabolite signal) [3]: 2.77E+04 and 2.13E+04 (2×) | UDP-glucose (C00029) metabolite signal [3]: 8.05E+04 and 6.15E+04 and 6.31E+04 | Urate (C00366) metabolite signal [3]: 4.79E+04 and 4.62E+04 and 3.28E+04 | Xanthine (C00385) metabolite signal [3]: 3.87E+05 and 3.78E+05 and 3.91E+05 | alpha-D-Glucosamine 1-phosphate (metabolite signal) [3]: 1.72E+06 and 1.66E+06 and 2.32E+06 | alpha-D-Ribose 1-phosphate (C00620) metabolite signal [3]: 1.60E+05 and 1.43E+05 and 1.11E+05 | gamma-Glutamyl-gamma-aminobutyrate (metabolite signal) [3]: 8.08E+04 and 5.90E+04 and 1.10E+05 | gamma-L-Glutamyl-D-alanine (metabolite signal) [3]: 2.48E+04 and 2.19E+04 and 1.85E+04 | gamma-L-Glutamyl-L-cysteine (metabolite signal) [3]: 2.81E+04 and 3.64E+04 and 2.51E+04
